Test results as given in patent publication US20140328951A1, “Composition for Preventing and Treating Vision Deterioration and Age-Related Macular Degeneration through Retinal Repair Using Ginseng/Red Ginseng Extracts and Ginsenoside” (GBIOMIX. CO., LTD., priority 2011, published 2014).

What was measured:
human Bruch's membrane = experiment: Hydraulic conductivity of Bruch's membrane in open-type Ussing chambers; conditions: 24 hours incubation
Protocol: Bruch's samples were mounted in open-type Ussing chambers and perfused with Tris-HCl buffer. Eluted samples (fluid coming through Bruch's membrane) were collected and measured for fluid transport. Control was perfused with Tris-HCl buffer whilst others were perfused with ginseng fractions for 24 hours.
Transport was tested as described in Example 3, and measured after 24 hours incubation with ginsenosides.
Transport was tested as described in Example 3, and measured after 24 hours incubation with 10% red ginseng extract.

[1] = test system: Retinal Pigment Epithelium (RPE) of Pig Eyes; experiment: Release of MMPs from RPE of pig eyecups (gelatin zymography); format: cell-based; conditions: pig eyecup
Protocol: Pig whole eyecup preparations of RPE were used in these experiments. Standard buffer for incubations utilised […] supplemented with foetal calf serum and antibiotics. Eyecups were incubated in this basal medium as control and in medium containing ginseng extract. Following a 6-24 hour incubation, the incubating medium was collected and subjected to gelatin zymography to analyse the type and level of MMP species present. In control medium, both pro- and active MMP 2&9 species are released continuously from the RPE (FIG. 7). […] This effect of KRG is conducive for regenerating Bruch's membrane. […]

[2] = 6-24 hour incubation, gelatin zymography, Ginseng extract at 10%

SMILES: CC(C)=CCC[C@](C)(O[C@@H]1O[C@H](CO)[C@@H](O)[C@H](O)[C@H]1O)[C@H]1CC[C@]2(C)[C@@H]1[C@H](O)C[C@@H]1[C@@]3(C)CC[C@H](O)C(C)(C)[C@@H]3CC[C@]12C [Compound K, 20-O-β-d-glucopyranosyl-20(S)-protopanaxadiol]
- Effect on hydraulic conductivity of human Bruch's membrane (in words) (human Bruch's membrane; 190 ug/ml): increased hydraulic conductivity
- Fold change in hydraulic conductivity over basal (human Bruch's membrane; 190 ug/ml, 5 donors): 1.45 ± 0.15
- Release of active MMP2 from the RPE [1, 2]: consistently increased
- Release of pro-MMP2 from the RPE [1, 2]: consistently increased
- Release of pro-MMP9 from the RPE [1, 2]: consistently increased

SMILES: CC(C)=CCC[C@](C)(O[C@@H]1O[C@H](CO[C@@H]2O[C@H](CO)[C@@H](O)[C@H](O)[C@H]2O)[C@@H](O)[C@H](O)[C@H]1O)[C@H]1CC[C@]2(C)[C@@H]1[C@H](O)C[C@@H]1[C@@]3(C)CC[C@H](O[C@@H]4O[C@H](CO)[C@@H](O)[C@H](O)[C@H]4O[C@@H]4O[C@H](CO)[C@@H](O)[C@H](O)[C@H]4O)C(C)(C)[C@@H]3CC[C@]12C [Rb1]
- Effect on hydraulic conductivity of human Bruch's membrane (in words) (human Bruch's membrane; 200 ug/ml): increased
- Fold change in hydraulic conductivity over basal (human Bruch's membrane; 200 ug/ml, 1 donor): 1.27
- Activated HMW1 level [1, 2]: increased activated HMW1 levels
- Release of active MMP2 from the RPE [1, 2]: did increase
- Release of active MMP9 from the RPE [1, 2]: without effect
- Release of pro-MMP2 from the RPE [1, 2]: did increase
- Release of pro-MMP9 from the RPE [1, 2]: effective in reducing the level of pro-MMP9

SMILES: CC(C)=CCC[C@](C)(O[C@@H]1O[C@H](CO)[C@@H](O)[C@H](O)[C@H]1O)[C@H]1CC[C@]2(C)[C@@H]1[C@H](O)C[C@@H]1[C@@]3(C)CC[C@H](O)C(C)(C)[C@@H]3[C@@H](O[C@@H]3O[C@H](CO)[C@@H](O)[C@H](O)[C@H]3O)C[C@]12C [Rg1]
- Effect on hydraulic conductivity of human Bruch's membrane (in words) (human Bruch's membrane; 200 ug/ml): increased
- Fold change in hydraulic conductivity over basal (human Bruch's membrane; 200 ug/ml, 1 donor): 1.2
- Release of pro-MMP9 from the RPE [1, 2]: increased the amount of pro-MMP9
- Release of MMPs from the RPE (overall) ([1]; FIG. 7): without effect
